{
  "source": "ChEMBL document CHEMBL1142647",
  "about": "“Potent pyrimidinetrione-based inhibitors of MMP-13 with enhanced selectivity over MMP-14” (Bioorg Med Chem Lett, 2005)",
  "target": "Collagenase 3 (Homo sapiens, UniProt P45452)",
  "test": "Inhibitory concentration against matrix metalloprotease 13",
  "data": [
    {"smiles": "CC1(Oc2ccc(Cl)cc2)C(=O)NC(=O)NC1=O", "values": [
      {"measurement": "IC50", "value": 0.39, "unit": "µM"}
    ]},
    {"smiles": "CCCCC1(Oc2ccc(Oc3ccc(F)cc3)cc2)C(=O)NC(=O)NC1=O", "values": [
      {"measurement": "IC50", "value": 0.002, "unit": "µM"}
    ]}
  ]
}
